US20120100105A1, “AGENT AND METHOD FOR TREATING REFRACTORY CHRONIC HEPATITIS C” (MEIJI SEIKA PHARMA CO., LTD., priority 2009, published 2012)

What was measured:
HCV = conditions: without ribavirin; cited from earlier work
genotype 1b HCV [1] = test: Antiviral effect of 22β-methoxyolean-12-ene-3β,24(4β)-diol and PEG-IFN in refractory chronic hepatitis C (NR case); blood HCV load by TaqMan PCR; format: in vivo, human; conditions: for Ratio of negativity achieved in blood HCV after 24 weeks from administrations: NR-case patients N=6; for Ratio of negativity achieved in blood HCV after 24 weeks from administrations (age) / Ratio of negativity achieved in blood HCV after 24 weeks from administrations (sex): NR case
Protocol: Subjects were the following patients (12 in total; 7 men, 5 women) who had been infected with genotype 1b HCV and had chronic hepatitis C and who were particularly considered to be highly refractory.
To these subject patients (NR case), a fine granule containing 25 mg or 400 mg of 22β-methoxyolean-12-ene-3β,24(4β)-diol was orally administered twice a day and 180 μg of PEG-IFN-α-2a (Pegasys: Roche Holding AG and Chugai Pharmaceutical Co., Ltd.) was subcutaneously administered per week. These administrations were continued for 24 weeks (hereinafter, the patients were referred to as a “50 mg/day administration group” or an “800 mg/day administration group”). The transitions of the blood HCV load and safety (clinical test value abnormality: blood hemoglobin value) before the administrations and up to 24 weeks were examined. The blood HCV load was measured using the TaqMan® PCR method, and the baseline of negativity was below 1.2 Log IU/mL.
The backgrounds of all the patients in the two administration groups are as follows. As for the sex, there were 7 men (58.3%) and 5 women […]. As for the age, the average age was 58.3, the youngest was 43 years old, and the oldest was 69 years old. With the baseline of 60 years old, there were 6 people who were under 60 years old (50.0%) and 6 people who were 60 years old or above (50.0%). The average blood HCV load of the patients before the administrations was 6.66 Log IU/mL with the minimum load of 5.30 Log IU/mL and the maximum load of 7.40 Log IU/mL. These exceeded the baseline, 5.00 Log IU/mL, of the high viral load, and all the patients were infected with genotype 1b.

genotype 1b HCV [2] = test: Antiviral effect of 22β-methoxyolean-12-ene-3β,24(4β)-diol and PEG-IFN in refractory chronic hepatitis C (LVR case); blood HCV load by TaqMan PCR; format: in vivo, human; conditions: for Ratio of negativity achieved in blood HCV after 12 weeks from administrations (age) / Ratio of negativity achieved in blood HCV after 12 weeks from administrations (sex): LVR case
Protocol: Subjects were 21 patients (9 men, 12 women) infected with genotype 1b HCV and having chronic hepatitis C. […] To these subject patients in a refractory chronic hepatitis C case, a fine granule containing 25 mg or 400 mg of […] was orally administered twice a day and 180 μg of PEG-IFN-α-2a (Pegasys: manufactured by Roche Holding AG and Chugai Pharmaceutical Co., Ltd.) was subcutaneously administered per week. […] The blood HCV load was measured using the TaqMan® PCR method, and the baseline of negativity was below 1.2 Log IU/mL.
The backgrounds of all the patients in the two administration groups are as follows. […] These exceeded the baseline, 5.00 Log IU/mL, of the high viral load, and all the patients were infected with genotype 1b.

[3] = 60 years old or above, 50 mg/day with PEG-IFN-α-2a
[4] = 60 years old or above, 800 mg/day with PEG-IFN-α-2a
[5] = 60 years old or above, total of both doses with PEG-IFN-α-2a
[6] = Men, 50 mg/day with PEG-IFN-α-2a
[7] = Men, 800 mg/day with PEG-IFN-α-2a
[8] = Men, total of both doses with PEG-IFN-α-2a
[9] = Women, 50 mg/day with PEG-IFN-α-2a
[10] = Women, 800 mg/day with PEG-IFN-α-2a
[11] = Women, total of both doses with PEG-IFN-α-2a
[12] = under 60 years old, 50 mg/day with PEG-IFN-α-2a
[13] = under 60 years old, 800 mg/day with PEG-IFN-α-2a
[14] = under 60 years old, total of both doses with PEG-IFN-α-2a

**Q.** With CO[C@@H]1CC(C)(C)C[C@H]2C3=CC[C@@H]4[C@@]5(C)CC[C@H](O)[C@](C)(CO)[C@@H]5CC[C@@]4(C)[C@]3(C)CC[C@@]12C [22β-methoxyolean-12-ene-3β,24(4β)-diol] as the molecule, how does the “Anti-HCV activity in combination with an IFN” value (HCV) read?
**A.** synergistic anti-HCV activity

**Q.** What about the “Ratio of negativity achieved in blood HCV after 24 weeks from administrations” value (genotype 1b HCV [1]; 50 mg/day (25 mg orally twice a day) combined with PEG-IFN-α-2a 180 μg/week s.c., negativity below 1.2 Log IU/mL) of the same molecule?
**A.** 50.0% (3/6)

**Q.** And the “Ratio of negativity achieved in blood HCV after 24 weeks from administrations” value (genotype 1b HCV [1]; 800 mg/day (400 mg orally twice a day) combined with PEG-IFN-α-2a 180 μg/week s.c.)?
**A.** 50.0% (3/6)

**Q.** What about the “Ratio of negativity achieved in blood HCV after 24 weeks from administrations (age)” value (genotype 1b HCV [1]; [3]) of the same molecule?
**A.** 50.0% (1/2)

**Q.** And the “Ratio of negativity achieved in blood HCV after 24 weeks from administrations (age)” value (genotype 1b HCV [1]; [4])?
**A.** 50.0% (2/4)

**Q.** And the “Ratio of negativity achieved in blood HCV after 24 weeks from administrations (age)” value (genotype 1b HCV [1]; [5])?
**A.** 50.0% (3/6)

**Q.** And the “Ratio of negativity achieved in blood HCV after 24 weeks from administrations (sex)” value (genotype 1b HCV [1]; [6])?
**A.** 50.0% (2/4)

**Q.** What about the “Ratio of negativity achieved in blood HCV after 24 weeks from administrations (sex)” value (genotype 1b HCV [1]; [7]) of the same molecule?
**A.** 33.3% (1/3)

**Q.** And the “Ratio of negativity achieved in blood HCV after 24 weeks from administrations (sex)” value (genotype 1b HCV [1]; [8])?
**A.** 42.9% (3/7)

**Q.** What about the “Ratio of negativity achieved in blood HCV after 24 weeks from administrations (sex)” value (genotype 1b HCV [1]; [9]) of the same molecule?
**A.** 50.0% (1/2)

**Q.** And the “Ratio of negativity achieved in blood HCV after 24 weeks from administrations (sex)” value (genotype 1b HCV [1]; [10])?
**A.** 66.7% (2/3)

**Q.** What about the “Ratio of negativity achieved in blood HCV after 24 weeks from administrations (sex)” value (genotype 1b HCV [1]; [11]) of the same molecule?
**A.** 60.0% (3/5)

**Q.** What about the “Ratio of negativity achieved in blood HCV after 24 weeks from administrations (age)” value (genotype 1b HCV [1]; [12]) of the same molecule?
**A.** 50.0% (2/4)

**Q.** And the “Ratio of negativity achieved in blood HCV after 24 weeks from administrations (age)” value (genotype 1b HCV [1]; [13])?
**A.** 50.0% (1/2)

**Q.** And the “Ratio of negativity achieved in blood HCV after 24 weeks from administrations (age)” value (genotype 1b HCV [1]; [14])?
**A.** 50.0% (3/6)

**Q.** What about the “Ratio of negativity achieved in blood HCV after 12 weeks from administrations” value (genotype 1b HCV [2]; 50 mg/day (25 mg orally twice a day) combined with PEG-IFN-α-2a 180 μg/week s.c., LVR-case patients N=11, negativity below 1.2 Log IU/mL) of the same molecule?
**A.** 63.6% (7/11)

**Q.** And the “Ratio of negativity achieved in blood HCV after 12 weeks from administrations” value (genotype 1b HCV [2]; 800 mg/day (400 mg orally twice a day) combined with PEG-IFN-α-2a 180 μg/week s.c., LVR-case patients N=10)?
**A.** 50.0% (5/10)

**Q.** And the “Ratio of negativity achieved in blood HCV after 12 weeks from administrations (age)” value (genotype 1b HCV [2]; [3])?
**A.** 75.0% (6/8)

**Q.** And the “Ratio of negativity achieved in blood HCV after 12 weeks from administrations (age)” value (genotype 1b HCV [2]; [4])?
**A.** 25.0% (1/4)

**Q.** What about the “Ratio of negativity achieved in blood HCV after 12 weeks from administrations (age)” value (genotype 1b HCV [2]; [5]) of the same molecule?
**A.** 58.3% (7/12)

**Q.** What about the “Ratio of negativity achieved in blood HCV after 12 weeks from administrations (sex)” value (genotype 1b HCV [2]; [6]) of the same molecule?
**A.** 60.0% (3/5)

**Q.** What about the “Ratio of negativity achieved in blood HCV after 12 weeks from administrations (sex)” value (genotype 1b HCV [2]; [7]) of the same molecule?
**A.** 50.0% (2/4)

**Q.** And the “Ratio of negativity achieved in blood HCV after 12 weeks from administrations (sex)” value (genotype 1b HCV [2]; [8])?
**A.** 55.6% (5/9)

**Q.** And the “Ratio of negativity achieved in blood HCV after 12 weeks from administrations (sex)” value (genotype 1b HCV [2]; [9])?
**A.** 66.7% (4/6)

**Q.** And the “Ratio of negativity achieved in blood HCV after 12 weeks from administrations (sex)” value (genotype 1b HCV [2]; [10])?
**A.** 50.0% (3/6)

**Q.** What about the “Ratio of negativity achieved in blood HCV after 12 weeks from administrations (sex)” value (genotype 1b HCV [2]; [11]) of the same molecule?
**A.** 58.3% (7/12)

**Q.** And the “Blood HCV load continued to be negative for 48 weeks of the administration period” value (genotype 1b HCV [2]; patients negative by 12 weeks whose administrations (25 or 400 mg twice a day with PEG-IFN-α-2a 180 μg/week) were continued up to 48 weeks)?
**A.** two out of three patients

**Q.** What about the “Relapse after the non-treatment period of subsequent 24 weeks” value (genotype 1b HCV [2]; the patients negative through 48 weeks of administration with PEG-IFN-α-2a, complete recovery was achieved) of the same molecule?
**A.** no relapse occurred

**Q.** What about the “Ratio of negativity achieved in blood HCV after 12 weeks from administrations (age)” value (genotype 1b HCV [2]; [12]) of the same molecule?
**A.** 33.3% (1/3)

**Q.** What about the “Ratio of negativity achieved in blood HCV after 12 weeks from administrations (age)” value (genotype 1b HCV [2]; [13]) of the same molecule?
**A.** 66.7% (4/6)

**Q.** And the “Ratio of negativity achieved in blood HCV after 12 weeks from administrations (age)” value (genotype 1b HCV [2]; [14])?
**A.** 55.6% (5/9)
